Measured values: ChEMBL document CHEMBL1125549, “Computer-aided mapping of the beta-adrenoceptor. 1. Explanation for effect of para substitution on blocking activity at the beta-1-adrenoceptor” (J Med Chem, 1992)

Experiments:
[1] = target: T1, Beta-1 adrenergic receptor (Cavia porcellus, UniProt B0FL73); test: Activity at beta-1 adrenergic receptor; details: read-out: pA2 (converted)
[2] = target: T1, Beta-1 adrenergic receptor; test: Compound was tested for the biological activity at the Beta-1 adrenergic receptor; details: read-out: pA2 (converted)

T1 sequence (B0FL73 whole entry): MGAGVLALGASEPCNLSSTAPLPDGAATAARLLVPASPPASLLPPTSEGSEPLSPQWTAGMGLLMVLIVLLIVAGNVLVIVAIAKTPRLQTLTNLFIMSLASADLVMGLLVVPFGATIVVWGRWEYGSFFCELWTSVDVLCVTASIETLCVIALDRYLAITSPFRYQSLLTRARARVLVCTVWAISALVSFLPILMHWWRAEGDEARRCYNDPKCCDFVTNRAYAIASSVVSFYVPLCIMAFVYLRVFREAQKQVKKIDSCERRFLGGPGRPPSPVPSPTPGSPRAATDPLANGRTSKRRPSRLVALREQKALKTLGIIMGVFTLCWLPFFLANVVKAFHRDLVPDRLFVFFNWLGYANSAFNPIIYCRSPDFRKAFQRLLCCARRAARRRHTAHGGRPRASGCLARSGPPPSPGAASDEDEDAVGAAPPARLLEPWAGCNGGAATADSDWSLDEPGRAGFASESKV

Kb [1] [nM] | Kb [2] [nM] | Compound
1.26 |  | CC(C)NCC(O)COc1ccc(-c2nc(-c3cccs3)c[nH]2)cc1 (stereo not given)
 | 398 | COCCOc1ccc(OCC(O)CNC(C)C)cc1 (stereo not given)
63.1 |  | CCc1ccc(OCC(O)CNC(C)C)cc1 (stereo not given)
25.1 |  | CC(C)NCC(O)COc1ccc(-c2ncc[nH]2)cc1 (stereo not given)
6.31 |  | CC(C)NCC(O)COc1ccc(OCCOCCc2ccc(F)cc2)cc1 (stereo not given)
